Experimental data published in patent publication US20230039836A1, “AROMATIC SULPHONAMIDES DERIVATIVES THAT INHIBITS PDI A3, THEIR SYNTHESIS AND USE” (Uniwersytet Jagiellonski, priority 2020, published 2023).
Converted amounts (≈) assume the structure as drawn. “And” between values parts separate entries of the source, which are not always exact repeats. Equal entries are not always repeated.

Tests used:
MCF-7 [1] = test: Sulforhodamine B antiproliferative assay, 72 h, normal and hypoxia; type: cell-based, human; conditions: 72-hour exposition; for IC50: Homo sapiens, MCF7
Experimental: (§1) Anticancer activity of PDI A1-inhibitors has been also tested in vitro in antiproliferative essay in normoxic and hypoxic conditions as well in estrogen-stimulated cancer cells. In the experiment, cells were seeded on 96-well plates (Sarstedt, Germany) in appropriate culture medium at a density of 10^5 cells/mL 24 h before adding the tested compounds. Cells were treated with each compound in four concentrations in the range 0.1-100 ug/mL. […] After 72 h of compound treatment at 37° C., 5 % CO2 humid atmosphere and in wo different oxygen level conditions: 21% - normal and <1% - hypoxia. In some experiments, the MDA-MB-231 and MCF-7 cells were seeded with or without 200 nM estradiol and after 24 h the tested compounds were added. A previously described sulforhodamine B antiproliferative assay was used with minor modifications (Skehan P et al., 1990). Briefly, cells were fixed with 50 µL/well of 50% (w/v) trichloroacetic acid (Avantor Performance Materials, Gliwice, Poland). After 1 h incubation, plates were washed several times with tap water and 50 µL of 0.4% (w/v) solution of sulforhodamine B (Sigma-Aldrich, Germany) in 1% (v/v) acetic acid (Avantor Performance Materials, Gliwice, Poland) was added to each well. After 30 min incubation at room temperature, unbound dye was washed out with 1% (v/v) acetic acid, whereas bound dye was solubilized with 10 mM unbuffered TRIS (Avantor Performance Materials, Gliwice, Poland) solution. The entire procedure was performed using a BioTek EL-406 washing station (BioTek Instruments, USA). After additional 30 min, absorbance was read using a Biotek Hybrid H4 reader (BioTek Instruments, USA) at 540 nm wavelength. MTT assay was used alternatively for HL-60 cell line and in the experiment in which estrogens are added (specified in the table legend). Absorbance was measured using a Biotek Hybrid H4 reader at 570 nm wavelength for MTT assay.
(§2) Compounds at each concentration were tested in triplicate in a single experiment and each experiment was repeated at least three times independently.
(§3) Results of in vitro antiproliferative effects are shown in Table 3 and Table 4 and are presented as mean IC50 ± SD calculated using the Prolab-3 system based on Cheburator 0.4 software.

MDA-MB-231 [2] = test: as above; type: cell-based, human; conditions: 72-hour exposition; for IC50: Homo sapiens, MDA-MB-231
Experimental: as §1, §2, §3

Caco-2 = test: Sulforhodamine B antiproliferative assay, 72 h; type: cell-based, human; conditions: normal (21% of oxygen), 72-hour exposition
Experimental: In the experiment, cells were seeded on 96-well plates (Sarstedt, Germany) in appropriate culture medium at a density of 10^5 cells/mL 24 h before adding the tested compounds. Cells were treated with each compound in four concentrations in the range 0.1-100 ug/mL. […] Briefly, cells were fixed with 50 µL/well of 50% (w/v) trichloroacetic acid (Avantor Performance Materials, Gliwice, Poland). After 1 h incubation, plates were washed several times with tap water and 50 µL of 0.4% (w/v) solution of sulforhodamine B (Sigma-Aldrich, Germany) in 1% (v/v) acetic acid (Avantor Performance Materials, Gliwice, Poland) was added to each well. After 30 min incubation at room temperature, unbound dye was washed out with 1% (v/v) acetic acid, whereas bound dye was solubilized with 10 mM unbuffered TRIS (Avantor Performance Materials, Gliwice, Poland) solution. […] After additional 30 min, absorbance was read using a Biotek Hybrid H4 reader (BioTek Instruments, USA) at 540 nm wavelength.

HT-29 [3] = test: Sulforhodamine B antiproliferative assay, 72 h; type: cell-based, human; conditions: normal (21% of oxygen), 72-hour exposition
Experimental: as §1, §2, §3

[4] = system: Lewis Lung Carcinoma (LLC); test: Murine model of Lewis Lung Carcinoma; type: in vivo, mice
Experimental: To confirm anticancer activity of selected compounds of invention, PDI A1-inhibitors in vivo, selected compounds of invention were tested in the murine model of Lewis Lung Carcinoma (LLC). The Lewis Lung Carcinoma (LLC) cell line was obtained from the ATCC collection and was cultured in a humidified atmosphere of 5% CO2 at 37° using Dulbecco’s modified Eagle’s medium (DMEM) that contained 10% bovine serum (Sigma). Female (6-8 weeks old) C57BL/6 mice (purchased from Envigo RMS. BV., Nederland) were acclimated for one week and were fed with animal chow and water ad libitum. The C57BL/6 mice were injected s.c. with 0.5 × 10^5 LLC cells per mice in 100 µL PBS. Compounds were dissolved in DMSO and then 0.9% NaCl (DMSO final concentration 1%) were added. In each treatment group, i.p. injections of 100 µl compound were started on 1 day after tumor inoculation. Control animals injected with equal volume of 0.9% NaCl with 1% DMSO administered in the same schedule as other groups. Tumor larger radius (a) and smaller radius (b) were measured by calipers. The tumor volume (Tv) was calculated according the following formulaTv = V=4 • ab2/3. The mice in control group were sacrificed 17 days after tumor establishment. Tumor tissues were dissected, weighed and frozen in OCT compound.

PDI A1 = biological target: T1, PDI A1 (Homo sapiens, UniProt P07237); test: Insulin turbidometric assay, inhibition of PDI A1; type: biochemical; conditions: insulin reduction, turbidity at 650 nm, 60 min incubation at 37° C.; read-out: Inhibition of PDI A1 (EC 50)
T1 construct: purchased Mybiosource; host or cells: E. coli
Experimental: The inhibitory effects compounds of invention on activity of PDI A1 was assess based on the insulin turbidometric assay. Enzymatic activity of PDIA1 was confirmed by measuring the turbidity increase at 650 nm due to insulin reduction. The assay mixture was prepared by addition 10 ug/ml PDIA1 (E.coli recombinant protein; Mybiosource), 0.1 mM phosphate buffer (pH7.6), 1 mM EDTA, 0.087 mM DTT and with or without tested compound and was incubated for 60 min, at 37° C. Reaction was started by addition insulin and DTT. Final concentration of insulin and DTT in assay mixture was 0.15 mM and 0.174 mM, respectively. Turbidity was detected at 650 nm against reference samples without PDI A1s. The measurements were performed at 650 nm using 120-s recordings.

MCF-7 [5] = test: MTT antiproliferative assay, 72 h, with or without estradiol; type: cell-based, human; conditions: for Selectivity index (SI): IC50 of MCF-10A/ IC50 of MCF-7 / IC50: 72 hours exposition; for IC50: Homo sapiens, MCF7, MTT
Experimental: as §1, §2, §3
(§4) Statistical analysis: Unpaired t test. *p<0.05 as compared to appropriate cells not pretreated with estradiol. MTT assay was used for antiproliferative activity assessment.

MDA-MB-231 [6] = test: as above; type: cell-based, human; conditions: for IC50: Homo sapiens, MDA-MB-231, 72 hours exposition, MTT
Experimental: as §1, §2, §3, §4

[7] = system: MCF-7 (human breast adenocarcinoma, estrogen-positive); test: MTT antiproliferative assay, 48 h; type: cell-based; conditions: Homo sapiens, MCF7, 48-hour exposition, read-out: Cytotoxicity, IC50, µM MCF-7
Experimental: (§5) About 2000-4000 cells per well (depending on line nature) were placed in 96-well plates and after 24 h compounds were added to the wells. Untreated cells were used as a control. The plates were incubated for 48 h, 37° C., 5% CO2. The number of surviving cells was determined using 3-(4,5-dimethylthiazol-2-yl)-2,5-diphenyltetrazolinium bromide (MTT). MTT-test: after incubating culture medium was removed and 200 µL fresh medium with 20 µL MTT (2 mg/mL in HBSS) was added in each well of the plate. After incubation (3 hr., 37° C., 5% CO2), the medium with MTT was removed and 200 µL DMSO were added at once to each sample. The samples were tested at 540 nm on Thermo Scientific Multiskan EX microplate photometer. The half-maximal inhibitory concentration (IC50) of each compound was calculated using Graph Pad Prism® 3.0.

[8] = system: Caco-2 (human colon adenocarcinoma); test: MTT antiproliferative assay, 48 h; type: cell-based; conditions: Homo sapiens, Caco-2, 48-hour exposition, read-out: Cytotoxicity, IC50, µM CaCo-2
Experimental: as §5

[9] = system: MDA-MB-231 (human mammary breast adenocarcinoma); test: MTT antiproliferative assay, 48 h; type: cell-based; conditions: Homo sapiens, MDA-MB-231, 48-hour exposition, read-out: Cytotoxicity, IC50, µM MDA-MB-231
Experimental: as §5

[10] = system: HT-1080 (human fibrosarcoma); test: MTT antiproliferative assay, 48 h; type: cell-based; conditions: 48-hour exposition, read-out: Cytotoxicity, IC50, µM HT-1080
Experimental: as §5

HL-60 = test: MTT antiproliferative assay, 72 h; type: cell-based; conditions: Homo sapiens, 72 hours exposition, read-out: IC50 [µg/ml] HL-60 normal
Experimental: as §1, §2, §3, §4

HT-29 [11] = test: MTT antiproliferative assay, 72 h; type: cell-based; conditions: Homo sapiens, 72 hours exposition, read-out: IC50 [µg/ml] HT-29 normal
Experimental: as §1, §2, §3, §4

[12] = C57BL/6 mice, LLC s.c., 50 mg/kg i.p., 5 animals
[13] = C57BL/6 mice, LLC s.c., 50 mg/kg i.p., single animals, 50 mg/kg
[14] = 200 nM estradiol, read-out: IC50 [µg/ml] MCF-7 + estradiol
[15] = not pretreated with estradiol, read-out: IC50 [µg/ml] MCF-7 normal
[16] = 200 nM estradiol, read-out: IC50 [µg/ml] MDA-MB-231 + estradiol
[17] = not pretreated with estradiol, read-out: IC50 [µg/ml] MDA-MB-231 normal

T1 sequence (P07237 18-508, species assumed): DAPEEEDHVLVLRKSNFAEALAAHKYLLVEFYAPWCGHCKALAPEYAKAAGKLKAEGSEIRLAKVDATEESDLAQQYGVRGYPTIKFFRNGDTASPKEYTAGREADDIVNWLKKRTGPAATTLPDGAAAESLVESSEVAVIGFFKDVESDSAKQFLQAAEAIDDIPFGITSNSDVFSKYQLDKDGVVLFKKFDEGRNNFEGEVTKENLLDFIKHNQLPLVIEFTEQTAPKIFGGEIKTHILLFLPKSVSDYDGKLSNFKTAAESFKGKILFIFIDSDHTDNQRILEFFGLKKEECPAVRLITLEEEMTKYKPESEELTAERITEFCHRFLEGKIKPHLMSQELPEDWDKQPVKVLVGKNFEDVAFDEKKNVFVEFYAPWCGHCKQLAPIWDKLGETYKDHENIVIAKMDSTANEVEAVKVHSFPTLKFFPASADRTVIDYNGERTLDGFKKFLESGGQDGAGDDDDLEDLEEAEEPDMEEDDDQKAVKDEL

Structure (SMILES)	IC50 [µg/ml] MCF-7 hypoxia (MCF-7 [1]; hypoxia (<1% of oxygen)) [µg/mL]	IC50 [µg/ml] MCF-7 normal (MCF-7 [1]; normal (21% of oxygen)) [µg/mL]	IC50 [µg/ml] MDA-MB-231 hypoxia (MDA-MB-231 [2]; hypoxia (<1% of oxygen)) [µg/mL]	IC50 [µg/ml] MDA-MB-231 normal (MDA-MB-231 [2]; normal (21% of oxygen)) [µg/mL]	IC50 [µg/ml] Caco-2 normal (Caco-2) [µg/mL]	IC50 [µg/ml] HT-29 normal (HT-29 [3]) [µg/mL]	EC50 (PDI A1) [nM]	Selectivity index (SI): IC50 of MCF-10A/ IC50 of MCF-7 (MCF-7 [5])	IC50 (MCF-7 [5]; [14]) [µg/mL]	IC50 (MCF-7 [5]; [15]) [µg/mL]	IC50 (MDA-MB-231 [6]; [16]) [µg/mL]	IC50 (MDA-MB-231 [6]; [17]) [µg/mL]	IC50 [7] [µM]	IC50 [8] [µM]	IC50 [9] [µM]	IC50 [10] [µM]	IC50 (HL-60) [µg/mL]	IC50 (HT-29 [11]) [µg/mL]	other results
COc1ccc(N2C(=O)/C(=C\c3ccc([N+](=O)[O-])s3)SC2=S)cc1 [CCF642, reference compound]	0.6 ± 0.6 (≈ 1.59 µM)	0.7 ± 0.5 (≈ 1.85 µM)	0.3 ± 0.2 (≈ 0.793 µM)	0.3 ± 0.1 (≈ 0.793 µM)	0.4 ± 0.1 (≈ 1.06 µM)	0.4 ± 0.05 (≈ 1.06 µM)	–	–	–	–	–	–	–	–	–	–	–	–	–
COC(=O)C1CN1S(=O)(=O)c1ccc(C)cc1 (stereo not shown) [Compound C-3161, Methyl 1-(p-tolylsulfonyl)aziridine-2-carboxylate]	–	–	–	–	–	–	5000	–	–	–	–	–	–	–	–	–	–	–	IC50 (MCF-7 [1]; hypoxia (<1% of oxygen), read-out: IC50 [µg/ml] MCF-7 hypoxia): 3.6 ± 0.3 µg/mL (≈ 14.1 µM); IC50 (MCF-7 [1]; normal (21% of oxygen), read-out: IC50 [µg/ml] MCF-7 normal): 3.6 ± 0.3 µg/mL (≈ 14.1 µM); IC50 (MDA-MB-231 [2]; hypoxia (<1% of oxygen), read-out: IC50 [µg/ml] MDA-MB-231 hypoxia): 11.3 ± 10.6 µg/mL (≈ 44.3 µM); IC50 (MDA-MB-231 [2]; normal (21% of oxygen), read-out: IC50 [µg/ml] MDA-MB-231 normal): 9.9 ± 8.2 µg/mL (≈ 38.8 µM); IC50 (Caco-2; Homo sapiens, Caco-2): 3.5 ± 0.3 µg/mL (≈ 13.7 µM); Tumor volume average±stdev, day 10 [4, 12]: 105±144 mm3; Tumor volume average±stdev, day 12 [4, 12]: 172±240 mm3; Tumor volume average±stdev, day 14 [4, 12]: 345±377 mm3; Tumor volume average±stdev, day 16 [4, 12]: 380±446 mm3; Tumor volume average±stdev, day 17 [4, 12]: 368±393 mm3; Individual tumor volumes, day 10 [4, 13]: 258 mm3 and 0 mm3 (3×) and 266 mm3; Individual tumor volumes, day 12 [4, 13]: 496 mm3 and 0 mm3 (3×) and 365 mm3; Individual tumor volumes, day 14 [4, 13]: 829 mm3 and 254 mm3 and 0 mm3 (2×) and 642 mm3; Individual tumor volumes, day 16 [4, 13]: 980 mm3 and 199 mm3 and 0 mm3 (2×) and 719 mm3; Individual tumor volumes, day 17 [4, 13]: 946 mm3 and 476 mm3 and 0 mm3 (2×) and 419 mm3; Anti-cancer activity in vivo ([4]; LLC model, Tables 6 and 7): possess anti-cancer activity in vivo; IC50 (HT-29 [3]; Homo sapiens, HT-29): 28.4 ± 5 µg/mL (≈ 111 µM)
COC(=O)C1CN1S(=O)(=O)c1cccc2c(N(C)C)cccc12 (stereo not shown) [Compound C-3326, Methyl 1-[[5-(dimethylamino)-1-naphthyl]sulfonyl]aziridine-2-carboaylate]	–	–	–	–	–	–	–	4.84	10.4 ± 2.4	5.4 ± 1.7 (≈ 16.1 µM)	17.7 ± 2.1	15.7 ± 3.1 (≈ 47 µM)	349 ± 13	170 ± 20	169 ± 20	100 ± 5	1.9 ± 0.6 (≈ 5.68 µM)	39.2 ± 6.5 (≈ 117 µM)	Change in sensitivity of MCF-7 after addition of estradiol (MCF-7 [5]; with estradiol versus without): slight decrease in sensitivity
CCCCCCc1ccc(S(=O)(=O)N2CC2C(N)=O)cc1 (stereo not shown) [Compound C-3389, 1-(4-Hexylphenyl)sulfonylaziridine-2-carboxamide]	–	–	–	–	–	–	30	0.23	18.4 ± 4.3	26.7 ± 4.5 (≈ 86 µM)	28 ± 1.7	23.2 ± 1 (≈ 74.7 µM)	47 ± 6	49 ± 2	32 ± 3	36 ± 3	2.8 ± 0.8 (≈ 9.02 µM)	31.2 ± 6.7 (≈ 101 µM)	Change of antiproliferative activity towards MDA-MB-231 during simultaneous incubation with estradiol (MDA-MB-231 [6]; with estradiol versus without): slight decrease of antiproliferative activity
O=C(C1CC1)N1CCN(Cn2sc3ccccc3c2=O)CC1 [LOC14, reference compound]	3.9 ± 0.3 (≈ 12.3 µM)	4.4 ± 0.9 (≈ 13.9 µM)	2.6 ± 0.5 (≈ 8.19 µM)	2.8 ± 0.4 (≈ 8.82 µM)	9.1 ± 3.4 (≈ 28.7 µM)	12.6 ± 8.4 (≈ 39.7 µM)	–	–	–	–	–	–	–	–	–	–	–	–	–
